Assay results published in patent US7981903B2, “2-[2-{phenylamino}-1H-pyrrolo[2,3-D]pyrimidin-4-yl)amino] benzamide derivatives as IGF-1R inhibitors for the treatment of cancer” (GlaxoSmithKline LLC, priority 2007, dated 2011).
“And” between values parts separate entries of the source, which are not always exact repeats. Equal values may be shown once.

Experiments:
ALK = ALK (Homo sapiens, UniProt Q9UM73); assay: ALK enzyme assay (HTRF); type: biochemical; conditions: 0.25 nM ALK, 15.0 μM ATP, values given as pIC50 category
Chain of ALK (Q9UM73 19-1620): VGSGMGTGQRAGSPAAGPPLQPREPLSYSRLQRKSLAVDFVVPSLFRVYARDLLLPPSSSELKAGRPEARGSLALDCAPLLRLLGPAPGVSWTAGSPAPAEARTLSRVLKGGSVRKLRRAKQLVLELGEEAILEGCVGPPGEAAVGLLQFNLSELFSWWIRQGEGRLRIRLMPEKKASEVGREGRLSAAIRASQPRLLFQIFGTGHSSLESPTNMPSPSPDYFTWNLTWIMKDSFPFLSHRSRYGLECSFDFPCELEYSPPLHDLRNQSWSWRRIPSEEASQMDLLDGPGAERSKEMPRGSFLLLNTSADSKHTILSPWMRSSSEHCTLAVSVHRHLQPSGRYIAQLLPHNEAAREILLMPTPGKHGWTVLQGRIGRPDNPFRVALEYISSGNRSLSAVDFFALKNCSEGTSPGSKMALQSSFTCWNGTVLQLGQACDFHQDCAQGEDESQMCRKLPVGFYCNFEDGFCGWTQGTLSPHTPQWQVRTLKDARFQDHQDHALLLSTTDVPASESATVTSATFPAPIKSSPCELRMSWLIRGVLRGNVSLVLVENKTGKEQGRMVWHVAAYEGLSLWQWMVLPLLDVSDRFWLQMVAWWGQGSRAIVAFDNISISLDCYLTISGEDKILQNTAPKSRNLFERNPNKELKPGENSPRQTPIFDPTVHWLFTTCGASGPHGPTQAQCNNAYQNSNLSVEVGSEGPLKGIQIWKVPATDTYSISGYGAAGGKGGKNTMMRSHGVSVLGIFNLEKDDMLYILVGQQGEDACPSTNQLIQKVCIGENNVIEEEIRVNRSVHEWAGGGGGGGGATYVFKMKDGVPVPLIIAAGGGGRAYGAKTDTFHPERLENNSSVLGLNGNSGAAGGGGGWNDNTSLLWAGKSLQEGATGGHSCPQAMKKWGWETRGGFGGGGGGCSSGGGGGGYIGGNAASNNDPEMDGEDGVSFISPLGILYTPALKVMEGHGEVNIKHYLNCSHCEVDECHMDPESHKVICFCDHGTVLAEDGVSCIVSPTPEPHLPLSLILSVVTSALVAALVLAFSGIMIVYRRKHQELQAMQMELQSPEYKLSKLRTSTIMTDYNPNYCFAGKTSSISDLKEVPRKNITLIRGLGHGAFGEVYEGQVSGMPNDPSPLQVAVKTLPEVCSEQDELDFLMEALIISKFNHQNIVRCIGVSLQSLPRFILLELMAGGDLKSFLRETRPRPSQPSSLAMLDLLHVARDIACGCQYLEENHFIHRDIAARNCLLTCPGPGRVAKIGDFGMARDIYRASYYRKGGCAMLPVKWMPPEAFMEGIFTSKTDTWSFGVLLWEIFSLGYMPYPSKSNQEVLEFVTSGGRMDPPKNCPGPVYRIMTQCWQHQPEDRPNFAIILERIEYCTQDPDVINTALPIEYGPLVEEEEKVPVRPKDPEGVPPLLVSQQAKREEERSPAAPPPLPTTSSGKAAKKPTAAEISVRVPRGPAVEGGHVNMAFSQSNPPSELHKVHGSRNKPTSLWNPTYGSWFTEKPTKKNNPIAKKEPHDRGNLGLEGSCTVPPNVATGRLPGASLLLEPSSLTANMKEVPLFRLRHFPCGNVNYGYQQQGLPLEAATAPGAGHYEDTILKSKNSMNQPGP
Outline: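 Final compound range 0.00017 to 10 μM (twelve 1:3 dilutions). Kinase reaction with ATP and biotinylated synthetic peptide runs 120 min at 20° C, stopped with EDTA; phosphotyrosine detected by HTRF after 60 min. Inhibition referenced to DMSO (1%) and EDTA (0.1 M) controls, curve-fitted.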

NCI-H929 = assay: Inhibition of cell proliferation (CellTiter-Glo or InCell analyzer), NCI-H929; type: cell-based; conditions: Homo sapiens, 72 h / 3 days, values given as IC50 category
Outline: In one

## CNC(=O)c1c(Nc2nc(Nc3cc4c(cc3OC)CCCN4C(=O)CN(C)C)nc3[nH]ccc23)ccc(F)c1F [Example 163, 6-[(2-{[1-(N,N-dimethylglycyl)-6-(methyloxy)-1,2,3,4-tetrahydro-7-quinolinyl]amino}-1H-pyrrolo[2,3-d]pyrimidin-4-yl)amino]-2,3-difluoro-N-methylbenzamide]
ALK
  IC50: 1.26 to 3.98 nM
NCI-H929
  IC50: < 250 nM

## COc1cc(C2CCN(C(C)C)CC2)ccc1Nc1nc(Nc2cc(F)c(F)cc2C(N)=O)c2cc[nH]c2n1 [Example 97, 4,5-difluoro-2-[(2-{[4-[1-(1-methylethyl)-4-piperidinyl]-2-(methyloxy)phenyl]amino}-1H-pyrrolo[2,3-d]pyrimidin-4-yl)amino]benzamide]
ALK
  IC50: 0.251 to 1 nM
NCI-H929
  IC50: < 250 nM

## COc1cc(N2CCCN(C)CC2)ccc1Nc1nc(Nc2cccc(F)c2C(N)=O)c2cc[nH]c2n1 [Example 209, 2-fluoro-6-[(2-{[4-(4-methylhexahydro-1H-1,4-diazepin-1-yl)-2-(methyloxy)phenyl]amino}-1H-pyrrolo[2,3-d]pyrimidin-4-yl)amino]benzamide]
ALK
  IC50: 0.251 to 1 nM
NCI-H929
  IC50: < 250 nM

## CCCN1CCC=C(c2ccc(Nc3nc(Nc4cc(F)ccc4C(N)=O)c4cc[nH]c4n3)c(OC)c2)C1 [Example 70, 4-fluoro-2-[(2-{[2-(methyloxy)-4-(1-propyl-1,2,5,6-tetrahydro-3-pyridinyl)phenyl]amino}-1H-pyrrolo[2,3-d]pyrimidin-4-yl)amino]benzamide]
ALK
  IC50: 0.251 to 1 nM
NCI-H929
  IC50: < 250 nM

## CCCN(C)CC(=O)N1CCc2cc(OC)c(Nc3nc(Nc4cccc(F)c4C(=O)NC)c4cc[nH]c4n3)cc21 [Example 167, 2-fluoro-N-methyl-6-[(2-{[5-(methyloxy)-1-(N-methyl-N-propylglycyl)-2,3-dihydro-1H-indol-6-yl]amino}-1H-pyrrolo[2,3-d]pyrimidin-4-yl)amino]benzamide]
ALK
  IC50: 1.26 to 3.98 nM and 0.251 to 1 nM
NCI-H929
  IC50: < 250 nM

## COc1cc2c(cc1Nc1nc(Nc3cccc(F)c3C(=O)NC(C)C)c3cc[nH]c3n1)N(C(=O)CN(C)C)CC2 [Example 158, 2-[(2-{[1-(N,N-dimethylglycyl)-5-(methyloxy)-2,3-dihydro-1H-indol-6-yl]amino}-1H-pyrrolo[2,3-d]pyrimidin-4-yl)amino]-6-fluoro-N-(1-methylethyl)benzamide]
ALK
  IC50: 0.251 to 1 nM
NCI-H929
  IC50: 250 to 1000 nM

## COc1cc2c(cc1Nc1nc(Nc3cc(F)cc(F)c3C(=O)NC(C)C)c3cc[nH]c3n1)N(C(=O)CN(C)C)CC2 [Example 153, 2-[(2-{[1-(N,N-dimethylglycyl)-5-(methyloxy)-2,3-dihydro-1H-indol-6-yl]amino}-1H-pyrrolo[2,3-d]pyrimidin-4-yl)amino]-4,6-difluoro-N-(1-methylethyl)benzamide]
ALK
  IC50: 0.251 to 1 nM
NCI-H929
  IC50: > 1000 nM

## COc1cc2c(cc1Nc1nc(Nc3cccc(F)c3C(N)=O)c3cc[nH]c3n1)N(C(=O)CN1CCCC1)CC2 [Example 138, 2-fluoro-6-[(2-{[5-(methyloxy)-1-(1-pyrrolidinylacetyl)-2,3-dihydro-1H-indol-6-yl]amino}-1H-pyrrolo[2,3-d]pyrimidin-4-yl)amino]benzamide]
ALK
  IC50: 1.26 to 3.98 nM
NCI-H929
  IC50: < 250 nM

## COc1cc(N2CCC(N3CCN(CCF)CC3)CC2)ccc1Nc1nc(Nc2cccc(F)c2C(N)=O)c2cc[nH]c2n1 [Example 114, 2-fluoro-6-[(2-{[4-{4-[4-(2-fluoroethyl)-1-piperazinyl]-1-piperidinyl}-2-(methyloxy)phenyl]amino}-1H-pyrrolo[2,3-d]pyrimidin-4-yl)amino]benzamide]
ALK
  IC50: 1.26 to 3.98 nM
NCI-H929
  IC50: < 250 nM

## COc1cc(N2CCN(CCS(C)(=O)=O)CC2)c(C)cc1Nc1nc(Nc2cccc(F)c2C(N)=O)c2cc[nH]c2n1 [Example 52, 2-fluoro-6-({2-[(5-methyl-2-(methyloxy)-4-{4-[2-(methylsulfonyl)ethyl]-1-piperazinyl}phenyl)amino]-1H-pyrrolo[2,3-d]pyrimidin-4-yl}amino)benzamide]
ALK
  IC50: 1.26 to 3.98 nM
NCI-H929
  IC50: 250 to 1000 nM

## COc1cc(N2CCN(CC3CC3)CC2)ccc1Nc1nc(Nc2cc(F)ccc2C(N)=O)c2cc[nH]c2n1 [Example 81, 2-[(2-{[4-[4-(cyclopropylmethyl)-1-piperazinyl]-2-(methyloxy)phenyl]amino}-1H-pyrrolo[2,3-d]pyrimidin-4-yl)amino]-4-fluorobenzamide]
ALK
  IC50: 0.251 to 1 nM
NCI-H929
  IC50: < 250 nM

## COc1cc2c(cc1Nc1nc(Nc3cc(F)cc(F)c3C(=O)NCc3ccc(F)cc3)c3cc[nH]c3n1)N(C(=O)CN(C)C)CC2 [Example 155, 2-[(2-{[1-(N,N-dimethylglycyl)-5-(methyloxy)-2,3-dihydro-1H-indol-6-yl]amino}-1H-pyrrolo[2,3-d]pyrimidin-4-yl)amino]-4,6-difluoro-N-[(4-fluorophenyl)methyl]benzamide]
ALK
  IC50: 5.01 to 200 nM
NCI-H929
  IC50: > 1000 nM

## CCCN1CCCC(c2ccc(Nc3nc(Nc4cc(F)ccc4C(N)=O)c4cc[nH]c4n3)c(OC)c2)C1 (centres unmarked) [Example 71, 4-fluoro-2-[(2-{[2-(methyloxy)-4-(1-propyl-3-piperidinyl)phenyl]amino}-1H-pyrrolo[2,3-d]pyrimidin-4-yl)amino]benzamide]
ALK
  IC50: 0.251 to 1 nM
NCI-H929
  IC50: < 250 nM

## CCN(CCO)CC(=O)N1CCc2cc(OC)c(Nc3nc(Nc4cccc(F)c4C(N)=O)c4cc[nH]c4n3)cc21 [Example 177, 2-[(2-{[1-[N-ethyl-N-(2-hydroxyethyl)glycyl]-5-(methyloxy)-2,3-dihydro-1H-indol-6-yl]amino}-1H-pyrrolo[2,3-d]pyrimidin-4-yl)amino]-6-fluorobenzamide]
ALK
  IC50: 1.26 to 3.98 nM
NCI-H929
  IC50: 250 to 1000 nM

## CNC(=O)c1c(F)cccc1Nc1nc(Nc2cc3c(cc2OC)N(C(=O)CN(C)C)CC3)nc2[nH]ccc12 [Example 198, 2-[(2-{[1-(N,N-dimethylglycyl)-6-(methyloxy)-2,3-dihydro-1H-indol-5-yl]amino}-1H-pyrrolo[2,3-d]pyrimidin-4-yl)amino]-6-fluoro-N-methylbenzamide]
ALK
  IC50: 1.26 to 3.98 nM
NCI-H929
  IC50: 250 to 1000 nM

## COc1cc(N2CCC(N3CC[C@@H](F)C3)CC2)ccc1Nc1nc(Nc2cccc(F)c2C(N)=O)c2cc[nH]c2n1 [Example 44, 2-fluoro-6-[(2-{[4-{4-[(3R)-3-fluoro-1-pyrrolidinyl]-1-piperidinyl}-2-(methyloxy)phenyl]amino}-1H-pyrrolo[2,3-d]pyrimidin-4-yl)amino]benzamide]
ALK
  IC50: 1.26 to 3.98 nM
NCI-H929
  IC50: < 250 nM

## CNC(=O)c1c(F)cccc1Nc1nc(Nc2cc3c(cc2OC)CCCN3C(=O)CN(C)C)nc2[nH]ccc12 [Example 212, 2-[(2-{[1-(N,N-dimethylglycyl)-6-(methyloxy)-1,2,3,4-tetrahydro-7-quinolinyl]amino}-1H-pyrrolo[2,3-d]pyrimidin-4-yl)amino]-6-fluoro-N-methylbenzamide]
ALK
  IC50: 1.26 to 3.98 nM
NCI-H929
  IC50: < 250 nM

## COc1cc2c(cc1Nc1nc(Nc3cc(F)cc(F)c3C(=O)NCC(C)C)c3cc[nH]c3n1)N(C(=O)CN(C)C)CC2 [Example 154, 2-[(2-{[1-(N,N-dimethylglycyl)-5-(methyloxy)-2,3-dihydro-1H-indol-6-yl]amino}-1H-pyrrolo[2,3-d]pyrimidin-4-yl)amino]-4,6-difluoro-N-(2-methylpropyl)benzamide]
ALK
  IC50: 1.26 to 3.98 nM
NCI-H929
  IC50: 250 to 1000 nM

## CNC(=O)c1c(F)cccc1Nc1nc(Nc2cc3c(cc2OC)CCCN3C(=O)CN2CCCCC2)nc2[nH]ccc12 [Example 217, 2-fluoro-N-methyl-6-[(2-{[6-(methyloxy)-1-(1-piperidinylacetyl)-1,2,3,4-tetrahydro-7-quinolinyl]amino}-1H-pyrrolo[2,3-d]pyrimidin-4-yl)amino]benzamide]
ALK
  IC50: 5.01 to 200 nM
NCI-H929
  IC50: < 250 nM

## CNC(=O)c1c(F)cccc1Nc1nc(Nc2cc(NC(=O)CN(C)C)ccc2OC)nc2[nH]ccc12 [Example 245, 2-[(2-{[5-[(N,N-dimethylglycyl)amino]-2-(methyloxy)phenyl]amino}-1H-pyrrolo[2,3-d]pyrimidin-4-yl)amino]-6-fluoro-N-methylbenzamide]
ALK
  IC50: 0.251 to 1 nM
NCI-H929
  IC50: < 250 nM

## CCN(C)CC(=O)N1CCc2cc(OC)c(Nc3nc(Nc4cccc(F)c4C(N)=O)c4cc[nH]c4n3)cc21 [Example 166, 2-[(2-{[1-(N-ethyl-N-methylglycyl)-5-(methyloxy)-2,3-dihydro-1H-indol-6-yl]amino}-1H-pyrrolo[2,3-d]pyrimidin-4-yl)amino]-6-fluorobenzamide]
ALK
  IC50: 1.26 to 3.98 nM
NCI-H929
  IC50: < 250 nM

## COc1cc2c(cc1Nc1nc(Nc3cccc(F)c3C(N)=O)c3cc[nH]c3n1)N(C(=O)CN)CC2 [Example 141, 2-fluoro-6-[(2-{[1-glycyl-5-(methyloxy)-2,3-dihydro-1H-indol-6-yl]amino}-1H-pyrrolo[2,3-d]pyrimidin-4-yl)amino]benzamide]
ALK
  IC50: 1.26 to 3.98 nM
NCI-H929
  IC50: 250 to 1000 nM

## COc1cc(N2CCN(C(C)C)CC2)ccc1Nc1nc(Nc2ccc(F)c(F)c2C(N)=O)c2cc[nH]c2n1 [Example 94, 2,3-difluoro-6-[(2-{[4-[4-(1-methylethyl)-1-piperazinyl]-2-(methyloxy)phenyl]amino}-1H-pyrrolo[2,3-d]pyrimidin-4-yl)amino]benzamide]
ALK
  IC50: 0.251 to 1 nM
NCI-H929
  IC50: < 250 nM

## COc1cc(N2CCC(N3CCN(S(C)(=O)=O)CC3)CC2)ccc1Nc1nc(Nc2cccc(F)c2C(N)=O)c2cc[nH]c2n1 [Example 113, 2-fluoro-6-({2-[(2-(methyloxy)-4-{4-[4-(methylsulfonyl)-1-piperazinyl]-1-piperidinyl}phenyl)amino]-1H-pyrrolo[2,3-d]pyrimidin-4-yl}amino)benzamide]
ALK
  IC50: 0.251 to 1 nM
NCI-H929
  IC50: < 250 nM

## CCCN1CCC(COc2ccc(Nc3nc(Nc4cccc(F)c4C(N)=O)c4cc[nH]c4n3)c(OC)c2)CC1 [Example 206, 2-fluoro-6-({2-[(2-(methyloxy)-4-{[(1-propyl-4-piperidinyl)methyl]oxy}phenyl)amino]-1H-pyrrolo[2,3-d]pyrimidin-4-yl}amino)benzamide]
ALK
  IC50: 1.26 to 3.98 nM
NCI-H929
  IC50: < 250 nM
